For 27 molecules, IC50 results are on record in PubChem BioAssay AID1159564 (GlaxoSmithKline (GSK), 2015).

For orientation: IC50 means the concentration at which inhibition is half-maximal.

Active and inactive are the calls of the source. No rule for the calls is given here.

The test system of the assay is L. donovani-infected THP-1 macrophages, intracellular amastigote imaging. Briefly: intracellular L. donovani amastigote inhibition, imaging, THP-1 host macrophages, host toxicity (AID 1159564).
Where [1] appears, read: measured here: THP-1 host cell toxicity.
The mark [2] stands for this setting: measured here: amastigotes per macrophage.

As to `Cc1ccc2onc(Nc3ccnc(Nc4cccc(S(C)(=O)=O)c4)n3)c2c1`, the IC50 is 2 µM. Moreover, the IC50 under setting [1] was 20 µM. In addition, the IC50 under setting [2] came out at 1 µM.
Taken in the same sequence, the figures for `Cc1ccccc1NS(=O)(=O)c1ccc2[nH]cc(C(=O)NC3CCCC3)c(=O)c2c1` were > 50 µM (inactive), 32 µM and 40 µM.
On to `CCN(CC)c1nc(N(C)C)nc2c1CN(Cc1ccccc1)CC2`, for which the IC50 is 6.3 µM. Also, the IC50 under setting [1] came out at 40 µM. In addition, the IC50 under setting [2] amounted to 4 µM.
On to `O=C(NCCc1csc(-c2ccc(F)cc2)n1)c1cccs1`, for which the IC50 was > 50 µM (inactive). The molecule further yielded an IC50 under setting [1] of over 50 µM. This molecule also displayed an IC50 under setting [2] of 20 µM.
Turning to `COc1ccc2ncc(=O)n(CCN3CC[C@H](NCc4ncc(Cl)c5[nH]ncc45)[C@H](O)C3)c2n1`, the IC50 is > 50 µM (inactive). In addition, the IC50 under setting [1] is over 50 µM. In addition, the IC50 under setting [2] is over 50 µM.
In the case of `c1ccc2c(CCOc3nccnc3-c3ccncc3)c[nH]c2c1`, the IC50 was > 50 µM (inactive). Under setting [1], this molecule came in with an IC50 of 20 µM. Under setting [2], this molecule returned an IC50 of 20 µM.
On to `CCOC(=O)c1cn[nH]c1S(=O)(=O)N1CCC1c1ccccc1` (stereo unspecified), for which the IC50 is > 50 µM (inactive). Besides, under setting [1], the IC50 is over 50 µM. Further, the IC50 under setting [2] was over 50 µM.
In the case of `O=C(NCCNc1noc(-c2ccc([N+](=O)[O-])cc2)n1)c1ccc(Cl)cc1`, the IC50 is > 50 µM (inactive). Moreover, the IC50 under setting [1] was found to be 16 µM. Under setting [2], this molecule came in with a half-inhibitory concentration (IC50) of over 50 µM.
For the molecule `O=C(c1ccc(OCCCc2cnc[nH]2)cc1)C1CC1`, the IC50 is > 50 µM (inactive). In addition, under setting [1], the IC50 was over 50 µM. Further, the IC50 under setting [2] was 7.9 µM.
With `CC(C)COC(=O)Nc1ccc(N2CCC(CNS(=O)(=O)c3ccccc3)CC2)c(F)c1`, the 50% inhibitory concentration (IC50) is 2 µM. Further, the IC50 under setting [1] was over 50 µM. Under setting [2], the IC50 was found to be 1.3 µM.
On to `COc1cc2c(cc1OC)[C@H]1[C@@H](C)c3ccc(OC)c(OC)c3CN1CC2`, for which the IC50 was 20 µM. Further, the IC50 under setting [1] was over 50 µM. This molecule came in with an IC50 under setting [2] of 16 µM.
As to `Cc1nn(-c2nc(N)nc(-c3ccccn3)n2)c(C)c1Cc1ccccc1`, the IC50 was 3.2 µM. Under setting [1], this molecule showed an IC50 of over 50 µM. The same molecule displayed an IC50 under setting [2] of 2.5 µM.
As for `NC(=O)c1ccc(-c2cccc(OCCN3CCN(C4CCCCC4)CC3)c2)cc1`, the IC50 was 50 µM. The IC50 under setting [1] stood at 32 µM. Besides, under setting [2], the IC50 is 10 µM.
Regarding `Cc1nn2c(NCCCO)c3c(nc2c1-c1cccs1)CCC3`, the IC50 was > 50 µM (inactive). This molecule returned an IC50 under setting [1] of over 50 µM. Under setting [2], this molecule had an IC50 of over 50 µM.
Consider `Cc1cc(=O)n2nc(Oc3ccc(C#N)cc3Cl)sc2n1`, for which the IC50 is 32 µM. This molecule also yielded an IC50 under setting [1] of 32 µM. Also, the IC50 under setting [2] came out at 32 µM.
As for `CCCN1CCN(Cc2ccc(S(=O)(=O)Nc3cccc(C)c3)cc2)CC1`, the IC50 is > 50 µM (inactive). The same molecule showed an IC50 under setting [1] of over 50 µM. This molecule also had a concentration for half-maximal inhibition (IC50) under setting [2] of over 50 µM.
As for `Cn1nc([N+](=O)[O-])nc1Oc1ccc(C(=O)c2ccccc2)cc1`, the IC50 is > 50 µM (inactive). Also, the IC50 under setting [1] is over 50 µM. The molecule also returned a 50% inhibitory concentration (IC50) under setting [2] of over 50 µM.
`C[C@@H](Oc1cc(-n2cnc3ccc(C(O)CO)cc32)sc1C(N)=O)c1ccccc1C(F)(F)F` (stereo partly specified): the IC50 is 20 µM. This molecule also had an IC50 under setting [1] of 16 µM. Also, the IC50 under setting [2] worked out at 13 µM.
As for `Cc1ccc2c(c1)SC(C(=O)Nc1n[nH]c(-c3ccccn3)n1)C2` (stereo unspecified), the IC50 is 4 µM. This molecule also returned an IC50 under setting [1] of 25 µM. The IC50 under setting [2] turned out to be 2.5 µM.
With `O=C(NNC(=O)c1ccccn1)c1ccc(-c2ccccc2)cc1`, the IC50 was 6.3 µM. For the same molecule, under setting [1], the IC50 amounted to 3.2 µM. Under setting [2], this molecule had an IC50 of 3.2 µM.
Take `COc1cc(-c2nc(N3CCOCC3)sc2-c2ccnc(NC3CCOCC3)n2)ccc1Cl`: the IC50 was > 50 µM (inactive). Also, the IC50 under setting [1] is over 50 µM. Further, under setting [2], the IC50 turned out to be 0.02 µM.
As for `CN(Cc1nc2c(C(=O)N3CCN(Cc4ccccc4)CC3)cccc2[nH]1)C1CCCc2cccnc21` (stereo unspecified), the IC50 is 1.3 µM. In addition, the IC50 under setting [1] was determined as 10 µM. Under setting [2], this molecule gave a 50% inhibitory concentration (IC50) of 0.79 µM.
Take `Cc1cnc(Nc2cc(Cc3ccccc3)nc(NC3CCC(O)CC3)n2)s1` (stereo unspecified): the IC50 was 0.04 µM. In addition, under setting [1], the IC50 turned out to be 0.025 µM. Under setting [2], the IC50 was 0.032 µM.
On to `CCn1nccc1CN(C)C(=O)C=Cc1ccc(Cl)cc1`, for which the IC50 was > 50 µM (inactive). Under setting [1], this molecule displayed an IC50 of over 50 µM. The molecule also displayed an IC50 under setting [2] of over 50 µM.
Take `CN(C)CCOc1ccc(N2CCN(S(=O)(=O)c3ccc(Cl)cc3)CC2)cc1`: the IC50 is 32 µM. Besides, the IC50 under setting [1] is over 50 µM. This molecule gave an IC50 under setting [2] of 32 µM.
Regarding `CCCc1nc2nc(N)nc(N)c2cc1CC`, the IC50 was 40 µM. For the same molecule, the IC50 under setting [1] is over 50 µM. The IC50 under setting [2] came out at 40 µM.
For the molecule `Cc1[nH]nc(Nc2ccnc3[nH]ccc23)c1C`, the IC50 is > 50 µM (inactive). Under setting [1], the IC50 was over 50 µM. The IC50 under setting [2] is over 50 µM.
